In data set [1] the test system is A549 cells. Put plainly: Drug combination study with colchicine (Chou-Talalay combination index). Conditions: for plus colchicine, mean CI / plus colchicine, median CI: combination index, colchicine held at IC10, A549 cells.
Data set [2] relates to A549 cells. Put plainly: Drug combination study with paclitaxel (Chou-Talalay combination index).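 As to all read-outs here: combination indexes averaged only over points where fraction affected exceeded 0.2, with each synergy experiment repeated at least three times.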 The following applies: for synergy (paclitaxel): combination index class, combination with paclitaxel, Chou-Talalay method; for plus paclitaxel, mean CI / plus paclitaxel, median CI: combination index, paclitaxel held at IC10, A549 cells.
In data set [3] the test system is tubulin. Put plainly: In vitro tubulin polymerization assay (fluorescence-based). It counts as biochemical. The following applies: for effect on tubulin polymerization / microtubules: tested in duplicate on at least two days. The protocol:
In vitro tubulin polymerization assays were performed using a fluorescence-based assay (Cytoskeleton, Inc., Denver, Colo.). […] Aliquots (5 μL) of each compound or control were added to a 96-well black half area plate (Corning Costar, Inc.) pre-warmed to 37° C. Cold tubulin reaction mix (50 μL 1× Buffer—80 mM piperazine-N,N′-bis[2-ethanesulfonic acid]sequisodium salt; 2.0 mM magnesium chloride; 0.5 mM ethylene glycol-bis[β-amino-ethyl ether) N,N,N′,N′-tetra-acetic acid, pH 6.9, 10 μM fluorescent reporter; 20% tubulin glycerol buffer—80 mM piperazine-N,N′-bis[2-ethanesulfonic acid] sequisodium salt; 2.0 mM magnesium chloride; 0.5 mM ethylene glycol-bis(β-amino-ethyl ether) N,N,N′,N′-tetra-acetic acid, 60% v/v glycerol, pH 6.9, 1 mM GTP; and 2 mg mL^−1 tubulin stock) was added to each of the compounds. […] Polymerization curves were generated in Excel after background correction and the effects of test compounds were compared to controls.
Library members that accelerated the rate of tubulin polymerization were deemed microtubule stabilizers, whereas compounds that decelerated the rate of tubulin polymerization were deemed microtubule de-stabilizers.

Data set [4] relates to mouse mammary normal epithelial control cell line. Put plainly: Cytotoxicity assay, normal control cell line.
Data set [5] concerns A549. Nature of the data set: Cytotoxicity assay (cell titer-glo and calcein AM), A549.
Data set [6] concerns Du145. Nature of the data set: Cytotoxicity assay (cell titer-glo and calcein AM), Du145.
Data set [7] has as its system Hep3B. Put plainly: Cytotoxicity assay (cell titer-glo and calcein AM), Hep3B.
Data set [8] relates to SF-268. Nature of the data set: Cytotoxicity assay (cell titer-glo and calcein AM), SF-268.
The test system of data set [9] is SK-OV-3. Put plainly: Cytotoxicity assay (cell titer-glo and calcein AM), SK-OV-3.
Data set [10] deals with ADR-RES. Nature of the data set: Cytotoxicity assay (cell titer-glo and calcein AM), ADR-RES. The following applies: NCI/ADR RES, % error in parentheses.
Data set [11] deals with NCI-H460. Nature of the data set: Cytotoxicity assay (cell titer-glo and calcein AM), NCI-H460.
Data set [12] deals with MCF7. Put plainly: Cytotoxicity assay (cell titer-glo and calcein AM), MCF7.
[13] abbreviates: read-out: Cytotoxicity IC50, NmuMG, CTG, CTG (cell titer-glo) readout, % error in parentheses.
[14] abbreviates: read-out: Cytotoxicity IC50, NmuMG, calcein, calcein AM readout, % error in parentheses.
Where [15] appears, read: read-out: Cytotoxicity IC50, A549, CTG, A549, CTG (cell titer-glo) readout, % error in parentheses.
Where [16] appears, read: read-out: Cytotoxicity IC50, A549, calcein, A549, calcein AM readout, % error in parentheses.
Setting [17] is: read-out: Cytotoxicity IC50, Du145, CTG, Du145, CTG (cell titer-glo) readout, % error in parentheses.
Setting [18] is: read-out: Cytotoxicity IC50, Du145, calcein, Du145, calcein AM readout, % error in parentheses.
[19] abbreviates: read-out: Cytotoxicity IC50, Hep 3B, CTG, Hep 3B, CTG (cell titer-glo) readout, % error in parentheses.
Where [20] appears, read: read-out: Cytotoxicity IC50, Hep 3B, calcein, Hep 3B, calcein AM readout, % error in parentheses.
Setting [21] is: read-out: Cytotoxicity IC50, SF-268, CTG, SF-268, CTG (cell titer-glo) readout, % error in parentheses.
Setting [22] is: read-out: Cytotoxicity IC50, SF-268, calcein, SF-268, calcein AM readout, % error in parentheses.
Setting [23] is: read-out: Cytotoxicity IC50, SK-OV-3, CTG, SK-OV-3, CTG (cell titer-glo) readout, % error in parentheses.
Where [24] appears, read: read-out: Cytotoxicity IC50, SK-OV-3, calcein, SK-OV-3, calcein AM readout, % error in parentheses.
Setting [25] is: read-out: Cytotoxicity IC50, NCI/ADR RES, CTG, CTG (cell titer-glo) readout.
The mark [26] stands for this setting: read-out: Cytotoxicity IC50, NCI/ADR RES, calcein, calcein AM readout.
The mark [27] stands for this setting: read-out: Cytotoxicity IC50, NCI-H460, CTG, NCI-H460, CTG (cell titer-glo) readout, % error in parentheses.
Where [28] appears, read: read-out: Cytotoxicity IC50, NCI-H460, calcein, NCI-H460, calcein AM readout, % error in parentheses.
Where [29] appears, read: read-out: Cytotoxicity IC50, MCF7, CTG, CTG (cell titer-glo) readout, % error in parentheses.
Where [30] appears, read: read-out: Cytotoxicity IC50, MCF7, calcein, calcein AM readout, % error in parentheses.
The mark [31] stands for this setting: drug combination, A549 cells, Chou-Talalay.

pIC50: −log10 of the molar value. Where two headings read alike, the source gives them in different places.

On to “19-(N-METHOXYAMINO-N-22-DEOXY-D-RIBOSYL)COLCHICINE [Col21]”, for which, in data set [1], the “plus colchicine, mean CI” value worked out at 1.01 and the “plus colchicine, median CI” value came out at 0.64. Moreover, in data set [2], the “synergy (paclitaxel)” value is recorded as “— (moderate antagonism, Cl 1.2-1.45)”; the “plus paclitaxel, mean CI” value came out at 4.96; the “plus paclitaxel, median CI” value is recorded as 2.50.

In the case of `COc1cc2c(c(OC)c1OC)-c1ccc(OC)c(=O)cc1[C@@H](NC(C)=O)CC2` [colchicine, reference compound], in data set [2], the “synergy (paclitaxel)” value is recorded as “++ (moderate synergism, Cl 0.7-0.85)”; the “plus paclitaxel, mean CI” value is 0.77; the “plus paclitaxel, median CI” value came to 0.18.

Consider 6-deoxy-6-acyl-D-galactoside [Col56], for which the tubulin polymeriz. entry in [3] is “no effect”. The “effect on tubulin polymerization / microtubules” value in [3] is “no apparent effect”. Also, the pIC50 in [4] (setting [13]) was 5.82; in data set [4] (setting [14]), 5.83; in data set [5] (setting [15]), 5.72; in data set [5] (setting [16]) it was 5.68; in data set [6] (setting [17]), 5.94; in data set [6] (setting [18]), 5.96. Besides, the pIC50 in data set [7] (setting [19]) is 5.83; in [7] (setting [20]), 5.65; in data set [8] (setting [21]), 5.76; in data set [8] (setting [22]), below 6.00; in [9] (setting [23]) it was 6.05; in data set [9] (setting [24]), 5.93. Further, the pIC50 is 5.94 in data set [10] (setting [25]); 6.00 in data set [10] (setting [26]); 5.81 in data set [11] (setting [27]); 5.96 in [11] (setting [28]); 5.50 in [12] (setting [29]); 6.09 in [12] (setting [30]).

For `COc1cccc2c1C(=O)c1c(O)c3c(c(O)c1C2=O)C[C@@](O)(C(=O)CO)C[C@@H]3O[C@H]1C[C@H](N)[C@H](O)[C@H](C)O1` [doxorubicin, reference compound], in data set [3], the tubulin polymeriz. entry is “no effect”. In addition, the “effect on tubulin polymerization / microtubules” value in [3] is on record as “no apparent effect”. Further, the pIC50 in [5] (Homo sapiens, A549, read-out: IC50 (A549)) was 6.11; in data set [6] (Homo sapiens, DU-145, read-out: IC50 (Du145)), 6.47; in data set [7] (Homo sapiens, Hep3B, read-out: IC50 (Hep3B)), 6.57; in [8] (Homo sapiens, SF-268, read-out: IC50 (SF-268)) it was 6.41; in data set [9] (Homo sapiens, SK-OV-3, read-out: IC50 (SK-OV-3)), 6.21; in data set [11] (Homo sapiens, NCI-H460, read-out: IC50 (NCI-H460)), 6.00.

Consider `COc1cc2c(c(OC)c1OC)-c1ccc(OC)c(=O)cc1[C@@H](N)CC2` [Col 6, deacetyl colchicine], for which, in [1], the “plus colchicine, mean CI” value is listed as 2.32 and the “plus colchicine, median CI” value came to 1.96. The “interaction with colchicine” value in [1] (setting [31]) is listed as “antagonism”. For the same compound, in data set [2], the “plus paclitaxel, mean CI” value was 0.57 and the “plus paclitaxel, median CI” value was 0.20. In addition, the “interaction with paclitaxel/taxol” value in [2] (setting [31]) is recorded as “synergy”.

As for `COc1cc2c(c(OC)c1OC)-c1ccc(OC)c(=O)cc1[C@@H](NC(=O)CN(OC)[C@@H]1O[C@H](CO)[C@@H](O)C[C@H]1O)CC2` [Col3, 3-deoxy-D-glucoside], the pIC50 in data set [4] (setting [13]) was below 5.00; in data set [4] (setting [14]), below 5.00; in data set [5] (setting [15]), 5.00; in data set [5] (setting [16]), below 5.00; in data set [6] (setting [17]), below 5.00; in data set [6] (setting [18]), 5.18. Moreover, the pIC50 was 5.29 in data set [7] (setting [19]); 5.39 in data set [7] (setting [20]); 5.27 in data set [8] (setting [21]); 5.07 in [8] (setting [22]); 5.35 in data set [9] (setting [23]); 5.38 in data set [9] (setting [24]). Also, the pIC50 in data set [10] (setting [25]) is below 5.00; in data set [10] (setting [26]), below 5.00; in [11] (setting [27]) it was 5.08; in [11] (setting [28]) it was 5.71; in data set [12] (setting [29]), 5.49; in [12] (setting [30]), below 5.00.

For `COc1cc2c(c(OC)c1OC)-c1ccc(OC)c(=O)cc1C(NC(=O)CN(OC)C1OCC(O)C(O)C1O)CC2` [Col25, L-arabinoside], the pIC50 in data set [4] (setting [13]) was 5.24; in data set [4] (setting [14]), below 5.00; in data set [5] (setting [15]), 5.30; in [5] (setting [16]) it was 5.28; in data set [6] (setting [17]), 5.13; in [6] (setting [18]) it was below 5.00. In addition, the pIC50 in [7] (setting [19]) was below 5.00; in data set [7] (setting [20]) it was below 5.00; in data set [8] (setting [21]), 5.17; in data set [8] (setting [22]), 5.35; in data set [9] (setting [23]), 5.07; in data set [9] (setting [24]) it was 5.60. Also, the pIC50 is 5.29 in [10] (setting [25]); 5.26 in data set [10] (setting [26]); 5.36 in data set [11] (setting [27]); 5.24 in data set [11] (setting [28]); 5.52 in [12] (setting [29]); 5.46 in [12] (setting [30]).

With `COc1cc2c(c(OC)c1OC)-c1ccc(OC)c(=O)cc1[C@@H](NC(=O)CN(OC)[C@@H]1O[C@H](C(=O)O)[C@@H](O)[C@H](O)[C@H]1O)CC2` [Col15, D-glucuronoside], the pIC50 in data set [4] (setting [13]) was below 5.30; in data set [4] (setting [14]), below 5.30; in data set [5] (setting [15]) it was 5.66; in data set [5] (setting [16]), 5.41; in data set [6] (setting [17]), 5.90; in data set [6] (setting [18]) it was 5.79. Besides, the pIC50 in data set [7] (setting [19]) was 5.48; in data set [7] (setting [20]), 5.46; in data set [8] (setting [21]) it was 5.93; in data set [8] (setting [22]), 5.99; in data set [9] (setting [23]) it was 5.97; in data set [9] (setting [24]) it was 5.54. Also, the pIC50 is 5.78 in data set [10] (setting [25]); 5.81 in data set [10] (setting [26]); 5.97 in data set [11] (setting [27]); 6.02 in data set [11] (setting [28]); 6.00 in data set [12] (setting [29]); 5.36 in [12] (setting [30]).

Regarding `COc1cc2c(c(OC)c1OC)-c1ccc(OC)c(=O)cc1[C@@H](NC(=O)CN(OC)[C@@H]1OC[C@@H](O)[C@H](O)[C@@H]1O)CC2` [Col1, D-lyxoside], the pIC50 is below 5.00 in data set [4] (setting [13]); 5.19 in [4] (setting [14]); 5.54 in data set [5] (setting [15]); 5.92 in [5] (setting [16]); 5.71 in [6] (setting [17]); 5.70 in data set [6] (setting [18]). For the same compound, the pIC50 in data set [7] (setting [19]) was 5.46; in [7] (setting [20]), 5.43; in data set [8] (setting [21]), 5.41; in data set [8] (setting [22]) it was 5.40; in data set [9] (setting [23]) it was 5.40; in data set [9] (setting [24]), 5.40. Further, the pIC50 in data set [10] (setting [25]) was 5.58; in data set [10] (setting [26]) it was 5.72; in data set [11] (setting [27]), 5.35; in data set [11] (setting [28]) it was 5.41; in data set [12] (setting [29]), 5.72; in data set [12] (setting [30]), 5.88.

The values are drawn from US20130012466A1 (priority 2006, published 2013).
